{
  "source": "paper PMC4805082",
  "about": "“Seizure control by decanoic acid through direct AMPA receptor inhibition” (Brain, 2015)",
  "key": {"AMPA receptor GluA1/2": {"molecular_target": "T1, AMPA receptor GluA1/2 (Homo sapiens, UniProt P42261+P42262)", "T1 construct": "expressed in transfected cells; host or cells: Xenopus laevis oocytes injected with cRNA (1:1 mix)", "T1 sequence (P42261 19-906 isoform P42261-2 limits assumed)": "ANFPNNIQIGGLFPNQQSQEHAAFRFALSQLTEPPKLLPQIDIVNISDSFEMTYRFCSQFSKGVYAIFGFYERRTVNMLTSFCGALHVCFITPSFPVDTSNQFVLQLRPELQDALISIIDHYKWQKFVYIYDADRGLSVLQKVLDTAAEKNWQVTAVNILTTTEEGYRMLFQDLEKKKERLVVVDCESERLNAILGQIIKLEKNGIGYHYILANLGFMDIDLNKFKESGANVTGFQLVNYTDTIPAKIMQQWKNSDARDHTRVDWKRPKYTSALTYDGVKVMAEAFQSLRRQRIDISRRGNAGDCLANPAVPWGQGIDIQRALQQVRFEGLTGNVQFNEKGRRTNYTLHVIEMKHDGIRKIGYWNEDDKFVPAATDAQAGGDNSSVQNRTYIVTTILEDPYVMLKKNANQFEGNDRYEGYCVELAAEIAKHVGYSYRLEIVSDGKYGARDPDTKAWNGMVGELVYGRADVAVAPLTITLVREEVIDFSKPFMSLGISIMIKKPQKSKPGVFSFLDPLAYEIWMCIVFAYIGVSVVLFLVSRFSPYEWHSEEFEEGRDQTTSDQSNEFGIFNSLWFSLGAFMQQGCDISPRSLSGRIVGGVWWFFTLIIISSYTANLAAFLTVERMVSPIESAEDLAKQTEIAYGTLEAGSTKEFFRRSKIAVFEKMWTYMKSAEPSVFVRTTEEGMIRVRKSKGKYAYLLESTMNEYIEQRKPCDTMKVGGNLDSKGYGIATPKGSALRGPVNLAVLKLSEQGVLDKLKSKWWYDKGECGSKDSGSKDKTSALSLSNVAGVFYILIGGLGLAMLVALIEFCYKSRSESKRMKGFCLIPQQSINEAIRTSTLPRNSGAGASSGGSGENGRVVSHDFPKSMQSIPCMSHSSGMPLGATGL", "T1 sequence (P42262 22-883 isoform P42262-2 limits assumed)": "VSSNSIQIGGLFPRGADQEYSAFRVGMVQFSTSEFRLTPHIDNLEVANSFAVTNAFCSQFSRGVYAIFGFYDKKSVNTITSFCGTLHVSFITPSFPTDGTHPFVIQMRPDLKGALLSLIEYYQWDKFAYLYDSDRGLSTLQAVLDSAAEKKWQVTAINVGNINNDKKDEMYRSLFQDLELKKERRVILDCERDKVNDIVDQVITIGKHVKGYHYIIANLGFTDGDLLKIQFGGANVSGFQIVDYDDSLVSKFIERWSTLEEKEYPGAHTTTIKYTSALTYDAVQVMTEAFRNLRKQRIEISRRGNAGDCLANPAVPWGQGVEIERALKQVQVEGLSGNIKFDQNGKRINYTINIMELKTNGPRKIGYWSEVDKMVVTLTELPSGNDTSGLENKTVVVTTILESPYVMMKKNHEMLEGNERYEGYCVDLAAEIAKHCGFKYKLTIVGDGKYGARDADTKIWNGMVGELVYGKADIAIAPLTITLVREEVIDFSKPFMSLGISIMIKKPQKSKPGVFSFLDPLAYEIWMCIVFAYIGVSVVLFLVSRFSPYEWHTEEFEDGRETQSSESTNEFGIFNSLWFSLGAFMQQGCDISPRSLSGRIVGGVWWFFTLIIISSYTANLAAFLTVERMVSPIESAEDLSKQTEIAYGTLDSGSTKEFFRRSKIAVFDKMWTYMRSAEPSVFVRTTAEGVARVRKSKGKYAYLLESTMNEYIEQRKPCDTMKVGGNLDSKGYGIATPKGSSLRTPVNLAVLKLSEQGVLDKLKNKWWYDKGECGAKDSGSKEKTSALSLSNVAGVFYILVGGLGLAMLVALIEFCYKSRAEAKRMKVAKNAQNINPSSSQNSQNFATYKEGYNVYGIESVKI", "test": "Two-electrode voltage clamp, AMPA receptor GluA1/2 expressed in Xenopus oocytes", "format": "cell-based", "experimental": "The AMPA receptor (flip isoform) cDNAs inserted in a SP6 polymerase expression vector (pSP6T) were a generous gift from Prof. Ralf Schoepfer (NPP, UCL). […] AMPA receptor cRNAs were mixed in a nominal 1:1 ratio and ∼5 ng was injected per oocyte.\nXenopus laevis oocytes were purchased from the European Xenopus Resource Centre, University of Portsmouth. Stage V to VI oocytes were mechanically dissected and then subjected to gentle shaking for ∼30–50 min at room temperature with modified Barth’s solution (in mM): 88 NaCl, 1 KCl, 2.4 NaHCO3, 0.82 MgCl2, 0.77 CaCl2, 15 Tris-Cl, adjusted to pH 7.4 with NaOH (Sigma-Aldrich), supplemented with 50 IU/ml penicillin and 50 µg/ml streptomycin (Invitrogen) and 50 µg/ml tetracycline (Sigma-Aldrich) and 1% collagenase (type 1A). Healthy oocytes were manually defolliculated and the injections of cRNA for homomeric subunits alone (GluA1), or heteromeric mixtures of two subunits together (GluA1/GluA2 or GluA2/GluA3) were made using an automated Drummond Nanoinject II injector. The oocytes were then incubated at 17°C in modified Barth’s solution for at least 48 h before use in electrophysiological recordings.\nExperiments were performed at room temperature (∼21–23°C). […]"}, "[1]": {"tested_on": "AMPA receptor mediated EPSCs in hippocampal CA1 pyramidal neurons", "test": "Whole-cell patch clamp, evoked AMPA receptor mediated EPSCs in CA1 pyramidal cells", "format": "cell-based, rat", "details": "n = 6", "experimental": "Male Sprague-Dawley rats (postnatal Days 19–30) were sacrificed using an overdose of isoflurane or pentobarbitone (500 mg/kg). After decapitation the brain was rapidly removed, the hippocampus or entorhinal cortex-hippocampus slices was dissected from the brain and […] thick transverse slices were prepared on a VT1200S vibratome (Leica) or Vibratome (Vibratome® 1500 sectioning system, Intracell). The slicing was performed in ice-cold sucrose-based solution containing (in mM): 75 sucrose, 87 NaCl, 22 glucose, 2.5 KCl, 7 MgCl2, 1.25 NaH2PO4, 0.5 CaCl2 and 25 NaHCO3, pH 7.4, 315–330 mOsm equilibrated with 95% O2 plus 5% CO2. The slices were then stored in a continuously oxygenated humidified interface holding chamber containing oxygenated artificial CSF (in mM): 120 NaCl, 22 glucose, 2.5 KCl, 1.3 MgSO4, 1 NaH2PO4, 25 NaHCO3 and 2.5 CaCl2, pH 7.4 296 mOsm, where they recovered for at least 1 h before use.\nFor electrophysiological recording, the slices were placed in a recording chamber constantly perfused with 32–34°C oxygenated artificial CSF solution using a gravity-driven perfusion system. Whole-cell patch clamp recordings were performed on CA1 pyramidal cells (input resistance 330 ± 70 MΩ) visualized using an infrared differential contrast imaging system. For patching, standard walled borosilicate glass pipettes with a resistance of 2.5–3.5 MΩ were used, filled with an intracellular pipette solution containing (in mM): 120 Cs-methanesulphonate, 10 HEPES, 0.2 EGTA, 8 NaCl, 0.2 MgCl2, 2 Mg-ATP, 0.3Na-GTP, 5 QX314-Br, 10 phosphocreatine, pH adjusted to 7.2 and osmolality adjusted to 296 mOsm. Series resistance was monitored throughout experiments using a −5 mV step command and cells showing a >20% change in series resistance, a series of resistance of >20 MΩ or an unstable holding current were rejected. Recordings of excitatory postsynaptic currents (EPSCs) were performed in the presence of DL-APV (DL-2-amino-5-phosphonopentanoic; 100 µM), picrotoxin (100 µM) and CGP55845 (5 µM) to block NMDA-, GABAA- and GABAB-receptors, respectively. Decanoic acid (Sigma) was added to the perfusion solution. EPSCs were evoked by stimulation of Schaffer collaterals. Paired pulses were evoked with stimulations separated by 50 ms. Inhibitory postsynaptic current (IPSCs) were recorded in the presence of DL-APV (100 µM), NBQX (10 µM) and CGP55845 (5 µM) to block NMDA-, AMPA- and GABAB-receptors, respectively.\nRecordings were obtained using a MultiClamp 700B amplifier (Axon instruments) and filtered at 4 kHz, digitized at 10 kHz, and stored on a PC. LabView8 (National instruments) was used for data acquisition and off-line analysis."}, "[2]": {"set-up": "method as in Wlaz et al., 2012", "details": "mice, gastric gavage 30 mmol/kg; ref Wlaz et al., 2012; cited from earlier work"}},
  "data": [
    {"smiles": "CCCCCCCCCC(=O)O", "note": "[decanoic acid]", "values": [
      {"measurement": "IC50", "setting": "AMPA receptor GluA1/2", "value": 1160, "unit": "µM"},
      {"measurement": "decrease of EPSC amplitude", "setting": "[1]; 100 µM", "value": "17.0 ± 5.6", "unit": "%"},
      {"measurement": "decrease of EPSC amplitude", "setting": "[1]; 300 µM", "value": "38.9 ± 5.5", "unit": "%"},
      {"measurement": "effect on 1/CV^2 for EPSCs", "setting": "[1]; 300 µM, versus baseline", "value": "no effect"},
      {"measurement": "effect on paired pulse ratio for EPSCs", "setting": "[1]; 300 µM, versus baseline", "value": "did not affect"},
      {"measurement": "brain concentration", "setting": "[2]", "value": "up to 240 µM"},
      {"measurement": "brain concentration as share of serum levels", "setting": "[2]", "value": "60–80%"}
    ]}
  ]
}
